Measured values taken from publication PMC10967822, “Antimicrobial Indole-3-Carboxamido-Polyamine Conjugates Target Bacterial Membranes and Are Antibiotic Potentiators” (Biomolecules, 2024).
Converted amounts (≈) assume the structure as drawn.

Tests used:
C. albicans ATCC 90028 = assay: Antifungal MIC (CO-ADD), C. albicans; type: cell-based; conditions: Candida albicans, ATCC90028, top dose 32 µg/mL
In short: (§1)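 MIC for C. neoformans determined by OD570–600 following a further 3 h with resazurin (0.006% final), whereas C. albicans was read directly at OD530. Both grown static in YNB broth at 2.5 × 10^3 CFU/mL final inoculum, 35 °C for 36 h, from colonies cultured on YPD agar 3 days at 30 °C.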

MRSA ATCC 43300 = assay: MIC, broth microdilution (CO-ADD), MRSA; type: cell-based, methicillin-resistant S. aureus; conditions: Staphylococcus aureus; MRSA ATCC 43300; top dose 32 µg/mL; read-out: MIC MRSA
[1] = test system: K. pneumoniae ATCC 700603; assay: MIC, broth microdilution (CO-ADD), K. pneumoniae; conditions: top dose 32 µg/mL
E. coli ATCC 25922 [2] = assay: MIC, broth dilution, E. coli; type: cell-based, Escherichia coli; conditions: Escherichia coli, ATCC25922; E. coli ATCC 25922, 18 h
S. aureus ATCC 25923 = assay: MIC, broth dilution, S. aureus; type: cell-based, Staphylococcus aureus; conditions: Staphylococcus aureus, ATCC25923; S. aureus ATCC 25923, 18 h; read-out: MIC Sa
E. coli ATCC 25922 [3] = assay: Erythromycin potentiation against E. coli; type: cell-based, Escherichia coli; conditions: erythromycin at 2 µg/mL (2.7 µM); for Erythro/Ec fold-change (intrinsic MIC / combination MIC): E. coli; for Erythro/Ec: concentration required to restore erythromycin activity (combination MIC): mean n = 3
Text: (§2) These measurements were independently repeated in triplicate.

A. baumannii ATCC 19606 = assay: MIC, broth microdilution (CO-ADD), A. baumannii; type: cell-based, Acinetobacter baumannii; conditions: Acinetobacter baumannii, ATCC19606, top dose 32 µg/mL
P. aeruginosa ATCC 27853 [4] = assay: Doxycycline potentiation against P. aeruginosa; type: cell-based, Pseudomonas aeruginosa; conditions: doxycycline at 2 µg/mL (4.5 µM); for Dox/Pa fold-change (intrinsic MIC / combination MIC): P. aeruginosa ATCC 27853; for Dox/Pa: concentration required to restore doxycycline activity (combination MIC): P. aeruginosa ATCC 27853, mean n = 3
Text: as §2

[5] = Cytotoxicity assay (resazurin); type: cell-based; conditions: human, HEK293 cells, mean n = 2
[6] = test system: C. neoformans ATCC 208821; assay: Antifungal MIC (CO-ADD), C. neoformans; type: cell-based; conditions: Cryptococcus neoformans, ATCC208821, top dose 32 µg/mL
In short: as §1

P. aeruginosa ATCC 27853 [7] = assay: MIC, broth dilution, P. aeruginosa; type: cell-based, Pseudomonas aeruginosa; conditions: Pseudomonas aeruginosa, ATCC27853; P. aeruginosa ATCC 27853, 18 h; read-out: MIC Pa
human red blood cells = assay: Hemolytic assay; type: cell-based; conditions: 10% hemolytic activity, mean n = 2
In short: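 Compounds were applied to saline-washed human red blood cells at 0.5 × 10^8 cells/mL, 37 °C, 1 h. Lysis was measured by supernatant absorbance at 405 nm, and concentrations giving 10% and 50% haemolysis were obtained by variable-slope curve fitting.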

MIC (C. albicans ATCC 90028) [µM] | MIC (MRSA ATCC 43300) [µM] | MIC Kp [1] [µM] | MIC (E. coli ATCC 25922 [2]) [µM] | MIC (S. aureus ATCC 25923) [µM] | Erythro/Ec fold-change (intrinsic MIC / combination MIC) (E. coli ATCC 25922 [3]) [fold] | Erythro/Ec: concentration required to restore erythromycin activity (combination MIC) (E. coli ATCC 25922 [3]) [µM] | MIC (A. baumannii ATCC 19606) [µM] | Dox/Pa fold-change (intrinsic MIC / combination MIC) (P. aeruginosa ATCC 27853 [4]) [fold] | Dox/Pa: concentration required to restore doxycycline activity (combination MIC) (P. aeruginosa ATCC 27853 [4]) [µM] | MIC [6] [µM] | MIC (P. aeruginosa ATCC 27853 [7]) [µM] | Structure (SMILES) | IC50 at 20 h [5] [µM] | Hemolysis HC10 (human red blood cells) [µM]
> 37 | ≤ 0.29 | >37 | > 232 | 232 | 1 | > 232 | > 37 | > 4 | 58.1 | ≤ 0.29 | > 232 | COc1cccc2c(C(=O)NCCCNCCCCCCCCCCNCCCNC(=O)c3c[nH]c4c(OC)cccc34)c[nH]c12.O=C(O)C(F)(F)F.O=C(O)C(F)(F)F [Compound 17e] | > 37 | >37
> 42 | ≤ 0.33 | >42 | 65.9 | 132 | 1 | 65.9 | > 42 | > 4 | 65.9 | ≤ 0.33 | > 263 | O=C(NCCCNCCCCCCCNCCCNC(=O)c1c[nH]c2ccccc12)c1c[nH]c2ccccc12.O=C(O)C(F)(F)F.O=C(O)C(F)(F)F [Compound 12c] | > 42 | >42
> 37 | ≤ 0.29 | >37 | 231 | 231 | 1 | 231 | > 37 | 1 | 116 | ≤ 0.29 | 116 | O=C(NCCCNCCCCCCCCCCCCNCCCNC(=O)c1c[nH]c2c(F)cccc12)c1c[nH]c2c(F)cccc12.O=C(O)C(F)(F)F.O=C(O)C(F)(F)F [Compound 16f] | > 37 | >37
> 40 | ≤ 0.31 | >40 | 125 (≈ 71.6 µg/mL) | 31.2 (≈ 17.9 µg/mL) | 4 | 31.2 | > 40 | 8 | 31.2 | ≤ 0.31 | 250 (≈ 143 µg/mL) | Cc1ccc2[nH]cc(C(=O)NCCCNCCCCCCCCNCCCNC(=O)c3c[nH]c4ccc(C)cc34)c2c1 [Compound 15d] | > 40 | >40
4.83 (≈ 2.9 µg/mL) | ≤ 0.3 | >39 | 30.2 (≈ 18.1 µg/mL) | 30.2 (≈ 18.1 µg/mL) | 2 | 15.1 | > 39 | 4 | 15.1 | ≤ 0.3 | 60.3 (≈ 36.2 µg/mL) | Cc1cccc2c(C(=O)NCCCNCCCCCCCCCCNCCCNC(=O)c3c[nH]c4c(C)cccc34)c[nH]c12 [Compound 18e] | > 39 | >39
> 41 | > 41 | >41 | 129 (≈ 70.3 µg/mL) | 129 (≈ 70.3 µg/mL) | 4 | 32.4 | > 41 | > 8 | 32.4 | ≤ 0.32 | > 259 | Cc1cccc2c(C(=O)NCCCNCCCCCCNCCCNC(=O)c3c[nH]c4c(C)cccc34)c[nH]c12 [Compound 18b] | > 41 | >41
4.17 (≈ 3.05 µg/mL) | ≤ 0.26 | >34 | 52.2 (≈ 38.1 µg/mL) | 3.26 (≈ 2.38 µg/mL) | 8 | 6.52 | 16.7 (≈ 12.2 µg/mL) | 4 | 26.1 | ≤ 0.26 | 104 (≈ 76 µg/mL) | O=C(NCCCNCCCCCCCCCCNCCCNC(=O)c1c[nH]c2ccc(Br)cc12)c1c[nH]c2ccc(Br)cc12 [Compound 13e] | > 33 | >33
> 40 | ≤ 0.31 | >40 | 125 | 31.2 | 2 | 62.4 | > 40 | > 4 | 62.4 | ≤ 0.31 | > 250 | O=C(NCCCNCCCCCCCCCCNCCCNC(=O)c1c[nH]c2ccccc12)c1c[nH]c2ccccc12.O=C(O)C(F)(F)F.O=C(O)C(F)(F)F [Compound 12e] | > 40 | >40
> 40 | ≤ 0.31 | >40 | > 250 | > 250 | 1 | 250 | > 40 | 8 | 31.2 | ≤ 0.31 | 250 (≈ 143 µg/mL) | Cc1cccc2c(C(=O)NCCCNCCCCCCCCNCCCNC(=O)c3c[nH]c4c(C)cccc34)c[nH]c12 [Compound 18d] | > 40 | >40
